Measured values from US6878388B1, “Vanadium compounds for treating proliferative cell disorders” (Parker Hughes Institute, priority 2000, dated 2005).
Where two headings read alike, the source gives them in different places.

Experiments:
[1] = test system: MDA-MB-231 breast cancer xenografts; assay: SCID mouse xenograft model of human breast cancer; assay type: in vivo, SCID mice
Procedure: FIGS. 1A-1B illustrate the in vivo antitumor activity of the vanadium compound, [VO(SO4)(Me2-Phen)2] against human glioblastoma and breast cancer in SCID mice. The effects of daily treatment with [VO(SO4)(Me2-Phen)2] (10 mg/kg/day) or 5% DMSO in PBS (given five days per week for four weeks beginning the day after inoculation) on tumor growth and progression of glioblastoma (FIG. 1A) and breast cancer (FIG. 1B) are illustrated. Comparisons between groups were done using the log-rank test.
The animal protocols used in this study were approved by the Parker Hughes Institute Institutional Animal Care and Use Committee (IACUC). […]
The right and left hind legs of the SCID mice were inoculated subcutaneously with 1×10^6 U87 human glioblastoma and 1×10^6 MDA-MB-231 beast cancer cells, respectively, in 0.1 mL PBS. […] Mice were monitored daily for health status as well as tumor growth and were sacrificed if they became moribund, developed tumors which impeded their ability to attain food or water, or at the ed of the six-week observation period. Tumors were measured using Vernier calipers three times per week. Tumor volumes were calculated according to the following formula, as described previously (Narla et al., Clin Cancer Res., 4: 1405-14, 1998; Friedman et al., Cancer Res., 55: 2853-2857, 1995): Tumor volume=(Width)^2(Length)/2. […]

[2] = test system: intracranial U87 glioblastoma; assay: Nude mouse model of intracranial glioblastoma; assay type: in vivo, NCr nude mice
Description: FIG. 2 illustrates the in vivo antitumor activity of [VO(SO4)(Me2-Phen)2] against intracranial U87 glioblastoma in nude mice. A representative survival curve of [VO(SO4)(Me2-Phen)2]-treated (n=8) and control (n=9) mice is shown.
The animal protocols used in this study were approved by the Parker Hughes Institute Institutional Animal Care and Use Committee (IACUC). Female CB.17 severe combined immuno-deficient (SCID) and NCr nude mice were obtained from Taconic (Germantown, N.Y.) and housed in a specific pathogen-free room located in a secure indoor facility with controlled temperature, humidity, and noise levels. Mice were housed in microisolater cages and fed with autoclaved rodent chow. Water was also autoclaved and supplemented with trimethoprim/sulfomethoxazol 3 days/week.
Nude mice were anesthetized with Avertin (2,2,2-tribromoethanol in tert-amyl alcohol; Aldrich Chemical Co., Milwaukee, Wis.) at a dose of 0.5 mg/g under aseptic conditions in a laminar flow hood. A small hole was drilled through the skull 2 mm to the right of the midline and 2 mm posterior to the bregma. U87 glioblastoma cells (4×10^5 cells in 10 μl of PBS) were intracranially implanted into the right side of the cerebral hemisphere of the mice using a Hamilton syringe fitted to a stereotaxic apparatus with a mouse adaptor (David Kopf Instruments, Tujunga, Calif.) as described earlier (34). Twenty-four hours after inoculation, mice were treated intraperitoneally with [VO(SO4)(Me2-Phen)2] (10 mg/kg/day, n=10) or vehicle (5% DMSO in PBS, n=11) for ten consecutive days. […] The grains were then fixed in formalin, processed for histopathology and the tumor volumes from histological sections were measured as described earlier (Haung et al., J. Biol Chem, 272; 2927-2935, 1997). the remaining mice were monitored twice a day for survival.
Following intracranial implantation of 4×10^5 U87 glioblastoma cells (in 10 μl of PBS) into the right cerebral hemispheres of NCr […] mice [VO(SO4)(Me2-Phen)2] […] The mice wee monitored twice a day for health status. […]

[3] = test system: MDA-MB-231 breast cancer cells; assay: In vitro adhesion assay to ECM proteins, MDA-MB-231; assay type: cell-based, human; settings: 16 h pretreatment, mean ± SE of 3 experiments
Procedure: In vitro adhesion assays were used to evaluate the effects of [VO(SO4)(Me2-Phen)2] on the adhesive properties of U87 and MDA-MD-231 cells as described previously (Narla et al., Clin Cancer Res, 4: 2463-2471, 1998). The plates for the adhesion assays were pre-coated with the extracellular matrix (ECM) proteins laminin, fibronectin, vitronectin and type IV collagen (each at a final concentration of 1 μg/ml in PBS) overnight at 4° C. and dried. Exponentially-growing cells (as described in the previous Example) were incubated with [VO(SO4)(Me2-Phen)2] at concentrations ranging from 0.5 μM to 25 μM for 16 hours in a humidified 5% CO2 atmosphere. The cells were then detached from the flasks with 0.05% trypsin (Life Technologies), resuspended in medium, incubated at 37° C. for 2 hours to allow them to recover from the trypsinization stress and examined for their ability to adhere to the plates precoated with ECM proteins. Cells were centrifuged, washed twice with serum-free medium, counted and resuspended in serum-free medium at a final concentration of 2.5×10^5 cells/ml. The cell suspension was added to each well in aliquots of 100 μl and the cells were allowed to adhere for one hour at 37° C. in a humidified 5% CO2atmosphere. The non-adherent cells were removed by gently washing the cells with PBS. The adherent fraction was quantitated using MTT assays as previously described (Narla, Supra).
U87 glioblastoma and MDA-MD-231 breast cancer cells were preincubated with various concentrations of [VO(SO4)(Me2-Phen)2] and processed for adhesion assays. [VO(SO4)(Me2-Phen)2] inhibited adhesion of the U87 and MDA-MB-231 cells to extracellular matrix (ECM) proteins, Pretreatment of cells with [VO(SO4)(Me2-Phen)2] inhibited the adhesion of U87 glioblastoma and MDA-MB-231 breast cancer cells to laminin-, fibronectin-, vitronectin- and collagen-coated plates. The inhibition of glioblastoma cell adhesion was concentration-dependent with mean (±SE) IC50 values from 3 independent experiments shown in the table below.

Q: `Cc1ccnc2c1ccc1c(C)ccnc12.Cc1ccnc2c1ccc1c(C)ccnc12.O=S(=O)([O-])[O-].[O]=[V+2]` [[VO(SO4)(Me2-Phen)2], bis(4,7-dimethyl-1,10-phenanthroline) sulfatooxovanadium (IV)] was tested. Which “average size of tumors” value ([1]; MDA-MB-231, 1.5 months after inoculation, 10 mg/kg i.p., vehicle control 641±98.7, P=0.004) did it give?
A: 286.9±41.5 mm^3

Q: And the “mice remaining alive and free of detectable tumors for >19 days” value ([1]; follows the MDA-MB-231 sentence, 10 mg/kg/dose i.p., five days per week for four weeks)?
A: 50%

Q: And the “mice remaining alive for >24 days” value ([2]; 10 mg/kg/day i.p. for ten consecutive days)?
A: over 60%

Q: What about the median survival time ([2]; 10 mg/kg/day i.p. for ten consecutive days, control 19.6±0.6 days, P=0.0002) of the same compound?
A: 24.4 ± 0.8 days

Q: And the “average tumor volume, fold less than vehicle-treated control” value ([2]; 17 days after tumor cell inoculation, histological sections, two mice per group)?
A: approximately 2.9 fold

Q: What about the IC50 ([3]; MDA-MB-231, fibronectin-coated plates, read-out: IC50 inhibition of adhesion to fibronectin) of the same compound?
A: 1000 nM

Q: What about the IC50 ([3]; MDA-MB-231, laminin-coated plates, read-out: IC50 inhibition of adhesion to laminin) of the same compound?
A: 1000 ± 100 nM

Q: What about the IC50 ([3]; MDA-MB-231, type IV collagen-coated plates, read-out: IC50 inhibition of adhesion to collagen) of the same compound?
A: 1300 nM

Q: What about the IC50 ([3]; MDA-MB-231, vitronectin-coated plates, read-out: IC50 inhibition of adhesion to vitronectin) of the same compound?
A: 1100 ± 100 nM
